Among the data in publication PMC7996098, “High-Level Extracellular Expression of a New β-N-Acetylglucosaminidase in Escherichia coli for Producing GlcNAc” (Frontiers in Microbiology, 2021) are Km values, retold here.

The experiment concerns the target T1, BlNagZ (Bacillus licheniformis, UniProt Q65P58).
T1 construct: gene ybbD; pET26b, PelB signal peptide (excised on secretion) fused to ORF amplified from its start codon; His-tag purified; E. coli BL21(DE3) supernatant
As to the kind of experiment: p-nitrophenol release, absorbance […] nm. It is filed as biochemical. The note with it: substrate of the Km not given, taken from the standard assay; pH 5.5, 60 °C (standard assay), 50 mM phosphate; read-out: Km (μ mol/L).

T1 sequence (Q65P58 entry or part of it): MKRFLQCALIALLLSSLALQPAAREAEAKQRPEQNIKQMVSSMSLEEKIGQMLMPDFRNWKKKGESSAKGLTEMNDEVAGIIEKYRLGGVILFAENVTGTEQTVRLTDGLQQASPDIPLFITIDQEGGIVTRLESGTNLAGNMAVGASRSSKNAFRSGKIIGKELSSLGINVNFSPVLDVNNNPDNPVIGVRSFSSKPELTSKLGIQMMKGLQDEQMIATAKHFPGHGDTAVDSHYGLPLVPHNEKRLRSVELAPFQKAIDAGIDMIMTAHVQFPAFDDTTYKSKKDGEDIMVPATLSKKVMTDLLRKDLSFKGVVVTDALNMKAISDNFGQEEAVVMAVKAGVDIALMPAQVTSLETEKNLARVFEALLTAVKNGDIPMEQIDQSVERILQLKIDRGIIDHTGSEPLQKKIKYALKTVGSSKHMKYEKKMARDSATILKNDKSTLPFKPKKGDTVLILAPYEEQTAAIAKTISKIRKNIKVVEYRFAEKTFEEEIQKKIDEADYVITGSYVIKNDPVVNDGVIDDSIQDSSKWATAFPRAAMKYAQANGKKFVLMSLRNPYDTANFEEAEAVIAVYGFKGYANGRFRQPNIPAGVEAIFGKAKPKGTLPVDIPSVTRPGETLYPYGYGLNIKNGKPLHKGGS

For `CC(=O)N[C@H]1[C@H](Oc2ccc([N+](=O)[O-])cc2)O[C@H](CO)[C@@H](O)[C@@H]1O` [pNP-β-D-GlcNAc], the Km is 0.000932 mol/L.
